The subject of series [1] is human cancer cell lines. As to the kind of experiment: CyQUANT cell viability assay, 48-hour exposure, panel averages. As to conditions: for fold greater cytostatic effect than amifostine: HCC38, PC3, SKOV3, TOV21G (amifostine GI50 <100 μM); for fold more potent than amifostine as a cytostatic agent, averaging: averages of dose-response metrics across panel. As to the method: After drug treatments, fluorescence readings from 96-well plates were obtained using the CyQUANT dye and compared to standard curves for each cell line to determine cell viability. […] Trypan blue exclusion was used to estimate cell numbers in a few pilot experiments and was thereafter applied to confirm cell death.
A series of experiments was conducted to assess the relative efficacy of 4SP65, 1LP65, and amifostine as single agents in the same human cancer cell lines. First, the effectiveness of 4SP65 was tested against 15 cancer cell lines derived from seven tissues. […] The effectiveness of 0 to ≤500 μM amifostine was tested in sets of cancer cell lines reported to have either medium, high, or no expression of alkaline phosphatase.
Trans. R Soc. Lond. […] Using cell numbers based on fluorescence measurements and standard curves [time zero, (Tz), control growth, (C), and test growth in the presence of drug at five or more concentration levels (Ti)], the percentage growth was calculated at each drug concentration level. The percentage of growth inhibition was calculated as follows:
The LC50/99 was calculated using Equation 2=−50 and Eq. 2=−99, respectively. […] For NHMECs, the relationships between drug exposure levels and fluorescence units were used to define dose-response metrics. The selectivity index (SI) values for individual drug treatments were calculated as IC50 levels in NHMECs divided by the IC50 values in cancer cell lines.

The test system of series [2] is H1975 cells.
Procedure: Trypan Blue exclusion was applied as a complementary confirmation probe for cell death.
Statistical comparisons of differences in individual dose-response metrics between individual/paired drug treatments and various cell lines were conducted using the Student's t-test, with P-values <0.05 considered significant.
Relative cell growth inhibition values for differing levels each drug alone and in combination were input into SynergyFinder to generated dose-response curves for each drug alone, to produce a dose-response matrix, to visualize the distribution of areas of differing degrees of synergism in a 2-dimension heatmap and 3-dimension volcano plot, and to calculate average and maximum synergy scores in selected human cancer cell lines. […] Synergy scores <10 means that the interaction between two drugs was likely to be antagonistic; scores from −10 to 10 means the interaction between two drugs was likely to be additive; and scores >10 means the interaction between two drugs was likely to be synergistic.
Series [3] concerns HPM3 cells. As to the kind of experiment: Dose-response metrics in immortalized, non-tumorigenic cells. In kind it is cell-based. As to the method:
(§1) To determine potential cytostatic or cytocidal effects of BRG prodrugs in immortalized, non-tumorigenic cells, Vero, HEK-293t, LP9, and HPM3 cells were exposed to 4SP65 while only Vero cells also were treated with 1LP65. […] Comparisons across other dose-response metrics could not be made because such levels of effects were not induced in NHMECs exposed to 4SP65. […] Since cytostatic and cytolytic effects at the TGI and LC50/99 levels were induced in Vero cells exposed to 1LP65 but not in NHMECs, there is a significant difference in the effects of 1LP65 in Vero cells compared to NHMECs, but p values based upon t-test evaluations cannot be defined due to lack of numerical data.

Series [4] can be described thus: Solubility testing. In kind it is physicochemical. The procedure:
(§2) The solubility of 4SP65 was tested in de-ionized water, PBS, DMSO, and RPMI or DMEM base medium with and without FBS. […] The difference in the starting weight of drug placed into solvent minus the weight of the residue after drying on a vacuum pump was considered to represent the amount of drug that went into solution. The amount of drug that was dissolved at a given time ranged from 40 to 61%, averaging 49.7±8.1% (SD). The weight of the 4SP65 in solution was then used for diluting the drug to concentrations of 200 or 400 μM in supplemented RPMI or DMEM/F12 medium for routine treatment of cells. The dried residue was not used in the in vitro drug efficacy studies. […] However, unintended topical entanglements between polymer chains of multi-arm PEG-thiol molecules without disulfide formation have been reported (Tang and Olsen, “Controlling Topological Entanglement in Engineered Protein Hydrogels with a Variety of Thiol Coupling Chemistries,” Front. Chem. 2:23 (2014), which is hereby incorporated by reference in its entirety). Aliquots of 4SP65 dissolved in FBS enriched medium has remained stable for >6 months while remnants of the original viscous polymer have maintained stability without any apparent loss of activity when stored for 60 months at −20° C.
(§3) The boc deprotected aminothiol conjugated to m-PEG6-thiol was dried on a vacuum pump overnight to yield a viscous oil that on analysis gave rise to spectra corresponding to 1LP65 as a di-trifluroacetic acid salt at a MW of 672.87 Da (FIG. 15), or a MW of 483 once dissolved in solution. As such, 1LP65 is soluble 100% DMSO or aqueous solution. However, the bulk of the product was dissolved at 40 mM in DMSO and stored in aliquots at −80° C. for future use once by further dilution in DMSO and then final dilution in medium for treatment of normal human epithelium and human cancer cell lines at working solutions of 4 mM or 400 μM drug. 1LP65 has maintained stability for six months in frozen aliquots but should be stable in DMSO at −80° C. for two to three years based upon recommended storage conditions for cystamine dihydrochloride (Selleck Chemical product information), an analogous 225 Da compound with a disulfide bond and amine groups like 1LP65.

Series [5] in a line: Storage stability. It is filed as physicochemical. As to the method: as §2
as §3, with “1LP65 has maintained stability for six months in frozen aliquots but should be stable in DMSO at −80° C. for two to three years based upon recommended storage conditions for cystamine dihydrochloride (Selleck Chemical product information), an analogous 225 Da compound with a disulfide bond and amine groups like 1LP65.” left out

Series [6] deals with HEK-293t cells. In kind it is cell-based. As to the method: as §1
Series [7] relates to LP9 cells. It is filed as cell-based. As to the method:
as §1

Series [8] is described as follows: Dose-response metrics in immortalized, non-tumorigenic cells. In kind it is cell-based. As to conditions: African green monkey, Vero cells (immortalized, non-tumorigenic); read-out: LC50 (the source's name). The procedure: as §1
Setting [9] is: 48-hour, 15 cancer cell lines (4SP65), 11 (1LP65).

Like-named read-outs stand apart in the source and are kept apart here.

Usually GI50 stands for the concentration that inhibits growth by half. The term IC50 denotes the concentration that inhibits the measured activity by half. Broadly, the TGI is the concentration giving total growth inhibition. The low end stands for more potent growth arrest, the high end for less potent growth arrest. In the case of 4-star PEG-S-S-WR1065 [4SP65], the “fold greater potency than predicted by ratio of four vs one WR1065/molecule” value in series [1] (4SP65 versus 1LP65) is given as about 2.5 fold. The “LC99, average across cell lines” value in series [1] (setting [9]) turned out to be 11.2 µM. Further, the “LC99, range” value in series [1] (setting [9]) was 3.0 to 21.1 µM. Also, in series [1] (setting [9]), the “TGI, average across cell lines” value stood at 6.8 ± 1.1 µM. The “TGI, range” value in series [1] (setting [9]) is 2.0 to 16.3 µM. The “fold greater cytostatic effect than amifostine” value in series [1] was determined as 38 fold. Moreover, the “fold more potent than 1LP65, averaging” value in series [1] (across dose-response metrics) turned out to be 10.4 fold. Moreover, the “fold more potent than amifostine as a cytostatic agent, averaging” value in series [1] is 55 fold. Further, the GI50 in series [1] (read-out: GI50, average across cell lines, 48-hour, 15 cancer cell lines (4SP65), 11 (1LP65)) was 4.1 ± 0.8 µM; in series [1] (read-out: average GI50, HCC38, PC3, SKOV3, and TOV21G) it was 1.7 µM; in series [2] (H1975, each drug alone, 48 h) it was 3.2 ± 1.1 µM; in series [3], about 10 µM; in series [6] (HEK-293t), 15.8 µM; in series [7] (LP9), 9.2 µM. In addition, the CC50 in series [2] came to 7.2 ± 1.4 µM; in series [6] it was 60.6 µM; in series [7], 19 µM. In addition, half-maximal inhibition in series [2] (H1975, each drug alone, 48 h) (IC50) required 3.5 ± 0.9 µM. Further, the LC99 in series [2] (H1975, each drug alone, 48 h) was determined as 8.9 ± 1.6 µM; in series [6] (HEK-293t), 62.4 µM. Moreover, the TGI was 5.5 ± 1.4 µM in series [2] (H1975, each drug alone, 48 h); 58.8 µM in series [6] (HEK-293t); 13.5 µM in series [7] (LP9). The “highest level that could be tested based upon maximum solubility in aqueous medium” value in series [4] (aqueous medium) came to 150 µM. For the same molecule, the “amount of drug that was dissolved, averaging (SD)” value in series [4] (aqueous solvents/medium) was found to be 49.7±8.1%. For the same molecule, the solubility entry in series [4] (de-ionized water, PBS, DMSO, RPMI or DMEM base medium with and without FBS) was “partially soluble in all media evaluated except DMSO”. Moreover, the “concentration above which a hydrogel forms” value in series [4] (in medium) is on record as “above 300 micromolar”. This molecule also registered a time remained stable in series [5] (dissolved in FBS enriched medium) of over 6 months. Besides, the “time stability maintained without apparent loss of activity” value in series [5] (original viscous polymer stored at −20° C.) was 60 months.
With `COCCOCCOCCOCCOCCOCCSSCCNCCCN` [1LP65, m-PEG6-S-S-WR1065], in series [1] (setting [9]), the “LC99, average across cell lines” value came to 126 ± 15.8 µM; the “LC99, range” value fell in the range of 83.5 to 234 µM; the “TGI, average across cell lines” value stood at 69.3 ± 10.3 µM; the “TGI, range” value lay in the range of 32.7 to 126 µM. In series [1], the “fold greater cytostatic effect than amifostine” value came out at 2.1 fold and the “fold more potent than amifostine as a cytostatic agent, averaging” value came out at 5.9 fold. The GI50 in series [1] (Homo sapiens, 48 h, read-out: GI50, average across cell lines, 48-hour, 15 cancer cell lines (4SP65), 11 (1LP65)) amounted to 41.2 ± 5.4 µM. Further, the GI50 in series [1] (Homo sapiens, 48 h, read-out: GI50, range for individual cell lines, 48-hour, 15 cancer cell lines (4SP65), 11 (1LP65)) lay in the range of 21.3 to 77.7 µM. Further, the CC50 in series [1] (Homo sapiens, 48 h, read-out: LC50, average across cell lines) stood at 94.6 ± 12.8 µM. Also, the CC50 in series [1] (Homo sapiens, 48 h, read-out: LC50, range) lay within 51.3 to 157 µM. The GI50 in series [1] (Homo sapiens, read-out: average GI50, HCC38, PC3, SKOV3, and TOV21G) was 30.4 µM. The CC50 in series [8] was found to be 129 ± 3.4 µM. For the same molecule, the solubility result in series [4] (100% DMSO or aqueous solution) is “soluble”. Moreover, the time stability maintained entry in series [5] (frozen aliquots, 40 mM in DMSO at −80° C.) is reported as “six”.

These data come from patent publication US20250144050A1, “AMINOTHIOL-CONJUGATES, COMPOSITIONS, AND METHODS OF USE THEREOF” (THE BURLINGTON HC RESEARCH GROUP, INC., priority 2021, published 2025).
